Test results published in patent US20190134003A1, “COMBINATION THERAPIES USING INDAZOLYLBENZAMIDE DERIVATIVES FOR THE TREATMENT OF CANCER” (ESANEX, INC., priority 2016, published 2019).

Columns and labels:
[1] = every other day (qod), previously-established; cited from earlier work
[2] = Dose escalation, MTD/DLT and adverse events of SNX-5422 with carboplatin and paclitaxel in patients; assay type: in vivo, human; details: SNX-5422 qod in combination with carboplatin (AUC 5) and paclitaxel (175 mg/m^2)
Source text: The performed dosing schedule is disclosed in FIG. 1. SNX-5422 dose was escalated as follows.

Q: With CC1(C)CC(=O)c2c(C(F)(F)F)nn(-c3ccc(C(N)=O)c(N[C@H]4CC[C@H](OC(=O)CN)CC4)c3)c2C1 [SNX-5422, trans-4-{(2-(aminocarbonyl)-5-[6,6-dimethyl-4-oxo-3-(trifluoromethyl)-4,5,6,7-tetrahydro-1H-indazol-1-yl]phenyl}amino)cyclohexyl glycinate] as the molecule, how does the “single agent MTD” value [1] read?
A: Its value is 100 mg/m^2.

Q: What about the “Maximum Tolerated Dose” value [2] of the same molecule?
A: Its value is 100 mg/m^2.
